Test: RP, Agilent ZORBAX Eclipse Plus C18, 150 × 2.1 mm, 3.5 µm, 40 °C, 0.3 mL/min, estimated dead time 1.1 min; A: water + 0.1% formic acid; B: acetonitrile + 0.1% formic acid; gradient (min/%B) 0/2 1/2 2/20 16.5/98 22/98
Settings: stereoisomer not certain

| LC retention time | SMILES |
| --- | --- |
| 6.75 min | O=C([O-])CC[P+](c1ccccc1)(c1ccccc1)c1ccccc1 |
| 7.46 min | CCCCCC[N+](C)(C)Cc1ccccc1 |
| 9.13 min | CCCC[N+](CCCC)(CCCC)Cc1ccccc1 |
| 4.62 min | c1ccc(CC2=NCCN2)cc1 |
| 7.26 min | O=C1NC(=O)C(c2ccccc2)(c2ccc(O)cc2)N1 (centres undefined) |
| 7.19 min | O=C([O-])CCC[P+](c1ccccc1)(c1ccccc1)c1ccccc1 |
| 11.1 min | Oc1ccc(Oc2ccccc2)cc1 |
| 13.1 min | COCC(=O)Nc1cc(Sc2ccccc2)ccc1N=C(NC(=O)OC)NC(=O)OC |
| 5.82 min | COC(=O)NN=Cc1c[n+]([O-])c2ccccc2[n+]1[O-] |
| 8 min | CCOC(=O)C[P+](c1ccccc1)(c1ccccc1)c1ccccc1 |
| 7.36 min | CN1C(C(=O)Nc2ccccn2)=C(O)c2sccc2S1(=O)=O |
| 7.36 min | CCCc1nc(C(C)(C)O)c(C(=O)O)n1Cc1ccc(-c2ccccc2-c2nn[nH]n2)cc1 |
| 3.67 min | Oc1ccc(O)cc1 |
| 7.56 min | OCc1coc(-c2ccccc2)n1 |
| 6.12 min | Cc1nnc(-c2ccccc2)c(=O)[nH]1 |
| 8.86 min | CCCc1nc2c(C)cc(-c3nc4ccccc4n3C)cc2n1Cc1ccc(-c2ccccc2C(=O)O)cc1 |
| 7.5 min | COC[P+](c1ccccc1)(c1ccccc1)c1ccccc1 |
| 11.4 min | CCCCC(=O)N(Cc1ccc(-c2ccccc2-c2nn[nH]n2)cc1)C(C(=O)O)C(C)C (centres undefined) |
| 6 min | c1ccc(CNCc2ccccc2)cc1 |
| 5.78 min | c1ccc2nc3ccccc3cc2c1 |
| 7.19 min | NC(=O)N1c2ccccc2CC(O)c2ccccc21 (centres undefined) |
| 9.97 min | CN(C)c1ccc(C(c2ccccc2)c2ccc(N(C)C)cc2)cc1 |
| 12 min | CCCCCCCCCCCC[N+](C)(C)CCOc1ccccc1 |

| LC retention time | SMILES |
| --- | --- |
| 7.14 min | O=S(=O)([O-])CCCC[P+](c1ccccc1)(c1ccccc1)c1ccccc1 |
| 6.96 min | COc1ccc(O)cc1 |
| 5.48 min | Nc1ccc(C(=O)O)c(O)c1 |
| 7.43 min | COc1cc2c(cc1OC)C(=O)C(CC1CCN(Cc3ccccc3)CC1)C2 (centres undefined) |
| 5.2 min | Nc1nc(N)c2nc(-c3ccccc3)c(N)nc2n1 |
| 9.02 min | CC(C)=CC[P+](c1ccccc1)(c1ccccc1)c1ccccc1 |
| 11 min | O=c1cc(-c2ccccc2)oc2cc(O)cc(O)c12 |
| 7.56 min | CNCCOC(c1ccccc1)c1ccccc1 |
| 5.18 min | NCCCCC(NC(CCc1ccccc1)C(=O)O)C(=O)N1CCCC1C(=O)O (centres undefined) |
| 6.23 min | O=c1[nH]sc2ccccc12 |
| 9.31 min | CC(C)CC[P+](c1ccccc1)(c1ccccc1)c1ccccc1 |
| 10.4 min | CCCCCCCCCC[N+](C)(C)Cc1ccccc1 |
| 5.9 min | O=C(CO)Nc1ccccc1 |
| 4.42 min | CN(C)Cc1ccccc1 |
| 7.45 min | CN(CC=CC#CC(C)(C)C(=O)O)Cc1cccc2ccccc12 |
| 8.78 min | c1ccc2scnc2c1 |
| 9.36 min | c1ccc2sc(N3CCOCC3)nc2c1 |
| 7.59 min | NC(=O)N1c2ccccc2C2OC2c2ccccc21 (centres undefined) |
| 7.89 min | O=C(O)c1ccccc1O |
| 7.24 min | OCCN1CCN(CCCN2c3ccccc3C=Cc3ccccc32)CC1 |
| 11.6 min | O=P(Cc1ccccc1)(Cc1ccccc1)Cc1ccccc1 |
| 2.73 min | CNCC(O)c1cccc(O)c1 (centres undefined) |
| 6.74 min | CC(=O)Nc1ccccc1 |

Further lines, the compound ahead of its results:

| SMILES | LC retention time |
| --- | --- |
| O=C1CC2(CCCCC2)CN1 | 7.59 min |
| COC(=O)Nc1cccc(N)c1C | 4.42 min |
| COC(=O)Nc1nc2ccccc2[nH]1 | 5.08 min |
| CC12CCC3c4ccc(O)cc4CCC3C1CC(O)C2=O (centres undefined) | 8.67 min |
| CCNc1nc(NC(C)(C)C)nc(S(C)=O)n1 (centres undefined) | 8.82 min |
| CCC(C)(C)C(=O)OC1CC(CO)C=C2C=CC(C)C(CCC3CC(O)CC(=O)O3)C21 (centres undefined) | 10.8 min |
| CCCCCCCCCCCCCCCC(=O)OCC(COP(=O)([O-])OCC[N+](C)(C)C)OC(=O)CCCC(=O)O (centres undefined) | 15.2 min |
| CC12CCC3C(CC=C4CC(O)CCC43C)C1CCC2=O (centres undefined) | 11.6 min |
| CCCOc1ccc2nc(NC(=O)OC)[nH]c2c1 | 6.66 min |
| COc1ccc2nc(SCc3[nH]cc(C)c(=O)c3C)[nH]c2c1 | 6.17 min |
| NP(=O)(c1ccccc1)c1ccccc1 | 7.41 min |
| CC1(C)CC(N(C=O)CCCCCCN(C=O)C2CC(C)(C)NC(C)(C)C2)CC(C)(C)N1 | 4.67 min |
| CCOP(=O)(OCC)OCC | 7.41 min |
| Nc1nc2c(ncn2CCC(CO)CO)c(=O)[nH]1 | 2.6 min |
| CCN(CC)CC(=O)Nc1c(C)cccc1C | 5.77 min |
| CN(C)CC1CCCCC1(O)c1cccc(O)c1 (centres undefined) | 5.39 min |
| COc1cc(NS(=O)(=O)c2ccc(N)cc2)nc(OC)n1 | 8.09 min |
| Cn1cnc2c(=O)[nH]c(N)nc21 | 2.43 min |
| O=P(O)(Oc1ccccc1)Oc1ccccc1 | 8.14 min |
| CCCC[N+](C)(CCCC)CCCC | 7.01 min |
| O=C1OCCOC(=O)c2ccc(cc2)C(=O)OCCOC(=O)c2ccc(cc2)C(=O)OCCOC(=O)c2ccc1cc2 | 14.5 min |
| CCOC(=O)CC(SP(=S)(OC)OC)C(=O)OCC (centres undefined) | 12.9 min |
| Cn1cnc([N+](=O)[O-])c1Sc1ncnc2nc[nH]c12 | 5.37 min |

| SMILES | LC retention time |
| --- | --- |
| CC(Cc1ccc(C(C)C(=O)O)cc1)C(=O)O (centres undefined) | 8.48 min |
| C#CC1(O)CCC2C3CCC4=CC(=O)CCC4C3CCC21CC (centres undefined) | 12.1 min |
| CC(Cc1ccc(C(C)(C)C)cc1)CN1CC(C)OC(C)C1 (centres undefined) | 9.53 min |
| CC(=O)c1ccc(C(=O)O)cc1 | 7.1 min |
| Nc1ccc(S(=O)(=O)Nc2nccs2)cc1 | 5.37 min |
| CC(C)(C(=O)O)c1ccc(C(O)CCCN2CCC(C(O)(c3ccccc3)c3ccccc3)CC2)cc1 (centres undefined) | 8.7 min |
| CC(C)(C(=O)O)c1ccc(C(=O)CCCN2CCC(OC(c3ccccc3)c3ccccc3)CC2)cc1 | 10 min |
| CNC(=C[N+](=O)[O-])NCCSCc1ccc(CN(C)C)o1 | 4.83 min |
| NC1=NC(O)c2ncn(COCCO)c2N1 (centres undefined) | 3.12 min |
| Cn1cnc2[nH]c(=O)[nH]c(=O)c21 | 4.44 min |
| CCNc1nc(NC(C)C)nc(SC)n1 | 8.65 min |
| CCCCC[N+](CCCCC)(CCCCC)CCCCC | 11.3 min |
| Cc1nnc(-c2ccccc2)c(=O)n1N | 6.78 min |
| CC1(C)CC(O)CC(C)(C)N1O | 5.7 min |
| CC(C)(C)P(C(C)(C)C)C(C)(C)C | 5.22 min |
| CCNc1nc(N)[nH]c(=O)n1 | 2.31 min |
| O=C(NC1CCCCC1)NC1CCCCC1 | 10.8 min |
| O=C(OC1CC2CCC(C1)[N+]21CCCC1)C(O)(c1ccccc1)c1ccccc1 (centres undefined) | 7.41 min |
| CC(C)C(NC(=O)OC(C)(C)C)C(=O)O (centres undefined) | 9 min |
| CCOC(=O)Nc1ccc(N)cc1 | 4.86 min |
| CCCCCCCCCCCCN | 9.47 min |
| CN(C)CC(c1ccc(O)cc1)C1(O)CCCCC1 (centres undefined) | 5.37 min |
| CC(C)(C)P(=O)(O)O | 4.63 min |

| SMILES | LC retention time |
| --- | --- |
| Cc1ccc(NC(=O)c2ccc(CN3CCN(C)CC3)cc2)cc1Nc1nccc(-c2cccnc2)n1 | 6.15 min |
| CCCCN1C=CC=CC1 | 4.24 min |
| CC(C)CC(C)(O)C#CC(C)(O)CC(C)C (centres undefined) | 12.4 min |
| COC1C(O)CC(=O)OC(C)CC=CC=CC(OC2CCC(N(C)C)C(C)O2)C(C)CC(CC=O)C1OC1OC(C)C(OC2CC(C)(O)C(O)C(C)O2)C(N(C)C)C1O (centres undefined) | 5.77 min |
| CCN1CCN(C(=O)NC(C(=O)NC2C(=O)N3C(C(=O)O)=C(CSc4nnnn4C)CSC23)c2ccc(O)cc2)C(=O)C1=O (centres undefined) | 6.86 min |
| CCCCCCCCCCCCCCCC[P+](CCCC)(CCCC)CCCC | 16 min |
| O=P(Oc1ccccc1)(Oc1ccccc1)Oc1ccccc1 | 14.1 min |
| CCCCCCCCCC[N+](C)(C)CCCCCCCCCC | 13.4 min |
| Cc1ccccc1NC(=O)NC1CCCCC1 | 11 min |
| C#CCC1=C(C)C(OC(=O)C2C(C=C(C)C)C2(C)C)CC1=O (centres undefined) | 14.9 min |
| COc1ccc2c3c1OC1C(=O)C=CC4C(C2)N(C)CCC314 (centres undefined) | 5.06 min |
| COC(=O)CCCCCCCCC(=O)OC1CC(C)(C)N(C)C(C)(C)C1 | 8.34 min |
| CC(C)c1ccccc1OP(=O)(Oc1ccccc1)Oc1ccccc1C(C)C | 17.4 min |
| CCC1OC(=O)CC(O)C(C)C(OC2OC(C)C(OC3CC(C)(O)C(O)C(C)O3)C(N(C)C)C2O)C(CC=O)CC(C)C(=O)C=CC(C)=CC1COC1OC(C)C(O)C(OC)C1OC (centres undefined) | 8.18 min |
| CCCCCCCCCC(=O)N(C)C | 13.6 min |
| CC(C)(c1ccc(OP(=O)(Oc2ccccc2)Oc2ccccc2)cc1)c1ccc(OP(=O)(Oc2ccccc2)Oc2ccccc2)cc1 | 17.7 min |
| CN(C)[P+](On1nnc2ccccc21)(N(C)C)N(C)C | 5.97 min |
| CCN(CC)CCNC(=O)c1cc(S(C)(=O)=O)ccc1OC | 4.86 min |
| COC(=O)c1ccc(CNS(C)(=O)=O)cc1S(=O)(=O)NC(=O)Nc1nc(OC)cc(OC)n1 | 10 min |
| Cc1ccc2n[nH]nc2c1 | 7.02 min |
| CC(C)C(=O)c1ccc(C(C)C(=O)O)cc1 (centres undefined) | 10.2 min |
| CCc1cccc(C)c1N | 7.96 min |
